≈ marks a conversion by molar mass, not a printed value. Like-named read-outs stand apart in the source and are kept apart here.
Key:
[1] = system: Mtb in murine macrophages; assay: Mtb replication in macrophages (intramacrophage EC50); format: cell-based; details: Mycobacterium tuberculosis, Macrophage
[2] = system: Mtb; assay: microbe, parasite or virus in culture; format: cell-based, Mycobacterium tuberculosis; details: Mycobacterium tuberculosis, cholesterol media
[3] = system: Mtb; assay: microbe, parasite or virus in culture; format: cell-based; details: Mycobacterium tuberculosis; read-out: 7H9 OADC EC50
[4] = system: Mtb; assay: microbe, parasite or virus in culture; format: cell-based; details: Mycobacterium tuberculosis; media with cholesterol and acetate
[5] = system: Mtb; assay: Quantification of bacterial cAMP in Mtb; format: cell-based, Mycobacterium tuberculosis
[6] = system: Erdman Mtb; assay: Mouse infection, BALB/c; format: in vivo, BALB/c mice
[7] = 0.98 µM, pH 7.2
Method: Liver microsomal stability
(§1) Liver microsomes from mouse (Xenotech), human (Corning) rat (Xenotech) and dog (Xenotech)
(§2) were prepared in potassium phosphate buf fer (100 mM) pH 7. 2. Experimental compounds were
(§3) dissolved in DMSO (100%) to a stock concentration of 10 mmol. A working compound solution
(§4) was made by diluting 5 µL of compound stock into 495 µL of acetonitrile (100%) to the final
(§5) concentration of compound (100 µM) and acetonitrile (99%). Similarly, positive control
(§6) compounds (Testosterone, Dichlofenac, and Propafenone) were dissolved in DMSO (100% to a
(§7) stock concentration of 10 mM in DMSO, and were diluted with 495 µL of acetonitrile (100%) to
(§8) the final concentration of compound (100 µM) and acetonitrile (99%). NADPH•4Na was dissolved
(§9) into a 10 mM MgCl2 solution (10 unit/mL) generating as a 10x cofactor stock. Pre-warmed
(§10) incubation plates were filled with 445 µL potassium phosphate buffer and incubated for 10 min at
(§11) 37°C with constant shaking. Liver microsomes (54 µL) liver and NADPH stock (6 µL) were added
(§12) to the plates. Working solution of compounds (5 µL) was added into the incubation plates
(§13) containing microsomes and mixed thoroughly before incubating at 37°C for 60 min under constant
(§14) shaking at 100 rpm. Reactions were stopped by the addition of 100 µl cold acetonitrile (100%)
(§15) containing the internal standards tolbutamide (200 ng/mL) and labetalol (200 ng/mL). All plates
(§16) were shaken for 10 min, then centrifuged at 4000 rpm for 20 minutes at 4°C. The cell free
(§17) supernatant was transferred into HPLC water and mixed by shaking the plate for 10 min minutes
(§18) prior to metabolite quantification by LC-MS/MS a nalysis.
(§19) The equation of first order kinetics was used to calculate T1/2 and CLin t(mic ) (µL/min/mg):
Equation of first order kinetics:
(§20) <=@(#<S) X= Y<@Z[ \] #_⁄#‘ #<SZ[a[#$b cZ[@L<= <= ZL$S@<[=
𝐶𝐿 = 𝐶𝐿 ∙ #_ #<SZ[a[#La ∙ _ b<Y LZ
(§21) <=@(b<Y LZ) <=@(#<S) _ b<Y LZ D_ e[fg hL<_i@
(§22) T1/2 is half life and CLin t ( mic ) is the intrinsic clearance
(§23) CLin t ( mic ) = 0.693/half life/mg microsome protein per mL
(§24) CLin t(l iv e r) = CLin t ( mic ) * mg microsomal protein/g liver weight * g liver weight/kg body weight
Extraction ratio calculation
(§25) Extraction ratio (ER) = CLH/QH= CLint(liver) / (CLint(liver) + Qh)
Qh is Hepatic Blood Flow (mL/min/kg)

[8] = 0.98 µM, pH 7.2; remark: listed apart in the source
Method: Liver microsomal stability
as §1, §2, §3, §4, §5, §6, §7, §8, §9, §10, §11, §12, §13, §14, §15, §16, §17, §18, §19
Equation of first order kinetics:
as §20
𝐶𝐿 = 𝐶𝐿 ∙ #_ #<SZ[a[#La ∙ _ b<Y LZ
as §21, §22, §23, §24
Extraction ratio calculation
as §25
Qh is Hepatic Blood Flow (mL/min/kg)

[9] = 0.98 µM, pH 7.2; remark: listed apart in the source
Method: Liver microsomal stability
as §1, §2, §3, §4, §5, §6, §7, §8, §9, §10, §11, §12, §13
(§26) shaking at 100 rpm. Reactions were stopped by the addition of 100 µl cold acetonitrile (100%) […]
(§27) prior to metabolite quantification by LC-MS/MS a nalysis. […]

[10] = 0.98 µM, pH 7.2; remark: listed apart in the source
Method: Liver microsomal stability
as §1, §2, §3, §4, §5, §6, §7, §8, §9, §10, §11, §12, §13, §26, §27

[11] = in vitro; details: human
[12] = in vitro; details: human; remark: listed apart in the source
[13] = in vitro; details: CD-1, mouse, plasma
[14] = in vitro; details: human, plasma
[15] = system: CYP1A2, CYP2C9, CYP2C19, CYP2D6, CYP3A4; assay: in vitro; details: human, pH 7.2
[16] = physchem; details: pH 6.8, aqueous buffer, kinetic from dmso stock
[17] = biological target: hERG potassium channel (Homo sapiens, UniProt Q12809); assay: Manual patch clamp assay for hERG inhibition
[18] = system: Mtb; format: cell-based, Mycobacterium tuberculosis; details: for 14CO2 release from [4-14C]-cholesterol: 10 μM
[19] = system: Mtb; format: cell-based, Mycobacterium tuberculosis; details: media containing fatty acid
[20] = system: Mtb; format: cell-based, Mycobacterium tuberculosis; details: 10 μM
[21] = system: Erdman Mtb; assay: Mouse infection, C3HeB/FeJ; format: in vivo, C3HeB/FeJ mice; details: 50 mg/kg oral once-daily weeks 4-8, intranasal infection
[22] = system: MKR strain of Mtb; parameters: method as in PMID 33542438; details: infected macrophages ref 13; cited from earlier work
[23] = 30mg/kg oral once-daily weeks 4-8, intranasal infection, BALB/c
[24] = 50 mg/kg oral once-daily weeks 4-8, intranasal infection, BALB/c

Chain of hERG potassium channel (Q12809 whole entry): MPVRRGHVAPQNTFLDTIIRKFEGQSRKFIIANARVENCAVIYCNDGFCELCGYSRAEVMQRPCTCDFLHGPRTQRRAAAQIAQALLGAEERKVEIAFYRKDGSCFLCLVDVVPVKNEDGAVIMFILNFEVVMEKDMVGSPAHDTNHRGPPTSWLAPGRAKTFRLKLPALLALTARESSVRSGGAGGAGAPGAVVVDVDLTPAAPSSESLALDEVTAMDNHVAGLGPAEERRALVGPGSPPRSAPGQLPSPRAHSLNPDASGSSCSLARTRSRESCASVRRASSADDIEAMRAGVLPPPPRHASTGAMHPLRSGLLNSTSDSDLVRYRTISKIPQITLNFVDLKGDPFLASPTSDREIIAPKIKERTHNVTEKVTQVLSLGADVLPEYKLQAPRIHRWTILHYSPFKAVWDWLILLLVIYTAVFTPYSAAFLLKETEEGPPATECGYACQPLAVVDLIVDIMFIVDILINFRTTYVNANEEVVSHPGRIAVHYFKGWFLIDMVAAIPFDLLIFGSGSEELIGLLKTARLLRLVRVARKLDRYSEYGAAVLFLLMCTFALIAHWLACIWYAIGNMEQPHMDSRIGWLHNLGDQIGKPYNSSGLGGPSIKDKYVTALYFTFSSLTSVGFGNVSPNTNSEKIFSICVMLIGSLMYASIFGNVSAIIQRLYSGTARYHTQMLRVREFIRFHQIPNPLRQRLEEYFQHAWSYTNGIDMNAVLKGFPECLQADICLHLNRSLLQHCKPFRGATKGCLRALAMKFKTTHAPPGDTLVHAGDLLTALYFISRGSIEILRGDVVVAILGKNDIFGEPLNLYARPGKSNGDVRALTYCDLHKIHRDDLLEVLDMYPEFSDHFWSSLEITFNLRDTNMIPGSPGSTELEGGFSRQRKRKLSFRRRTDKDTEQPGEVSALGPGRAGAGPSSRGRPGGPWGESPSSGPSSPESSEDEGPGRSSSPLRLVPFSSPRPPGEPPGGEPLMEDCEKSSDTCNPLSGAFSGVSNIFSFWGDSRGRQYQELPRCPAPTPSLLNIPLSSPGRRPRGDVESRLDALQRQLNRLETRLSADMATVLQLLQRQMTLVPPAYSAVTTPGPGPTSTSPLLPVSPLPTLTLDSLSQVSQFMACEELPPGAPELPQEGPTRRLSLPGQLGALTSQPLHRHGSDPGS

Q: What does the source list for `Cn1ncnc1CC(=O)N1CCC(c2nc(-c3ccc(Cl)c(Cl)c3)no2)CC1` [mCLB073, 1-(4-(3-(3,4-dichlorophenyl)-1,2,4-oxadiazol-5-yl)-1-piperidinyl)-2-(2-methyl-2H-1,2,4-triazol-3-yl)-1-ethanone]?
A: EC50 [1]: 1.2 µM; EC50 ([2]; read-out: Cholesterol EC50): 0.027 µM; EC50 [3]: > 50 µM; EC50 [4]: > 50 µM; cAMP synthesis ([5]; Figs 3B and S2C): activates cAMP synthesis; decrease of extent of lung pathology [6, 23]: ~ 45%; reduction in lung CFUs [6, 23]: ~ 0.4 log10; bacterial burden in the lungs when added to a sub-optimal dose of rifampicin ([6]; mouse, in vivo): did not increase the bacterial burden; reduction in lung CFUs ([6]; mouse, in vivo): ~ 0.4 log10; ER mouse [7]: 0.3; ER human [8]: 0.3; ER rat [9]: 0.2; ER dog [10]: 0.3; CC50 at 72 h [11]: > 20 µM; CC50 at 72 h [12]: > 20 µM; fraction unbound at 4 h [13]: 0.037; fraction unbound at 4 h [14]: 0.024; IC50 at 10 min [15]: > 50 µM; solubility at 24 h [16]: 160 µM (≈ 67.4 µg/mL); IC50 [17]: 13.8 µM

Q: With `Cc1nonc1CC(=O)N1CCC(c2nc(-c3ccc(F)cc3)no2)CC1` [mCIS635] as the molecule, how does the EC50 [1] read?
A: The EC50 was 0.27 µM.

Q: What about the EC50 ([2]; read-out: Cholesterol EC50) of the same molecule?
A: Its EC50 is 0.15 µM.

Q: What about the EC50 [3] of the same molecule?
A: Its EC50 is > 50 µM.

Q: What about the EC50 [4] of the same molecule?
A: Its EC50 is > 50 µM.

Q: What about the ER mouse [7] of the same molecule?
A: The ER mouse was 0.4.

Q: And the ER human [8]?
A: Its ER human is 0.3.

Q: And the CC50 at 72 h [11]?
A: Its CC50 at 72 h is > 20 µM.

Q: And the CC50 at 72 h [12]?
A: The CC50 at 72 h was > 20 µM.

Q: And the fraction unbound at 4 h [13]?
A: The fraction unbound at 4 h was 0.056.

Q: And the IC50 at 10 min [15]?
A: Its IC50 at 10 min is > 50 µM.

Q: What about the solubility at 24 h [16] of the same molecule?
A: Its solubility at 24 h is 34.4 µM (≈ 12.8 µg/mL).

Q: What about the IC50 [17] of the same molecule?
A: Its IC50 is 9.5 µM.

Q: With `Cn1ncnc1CC(=O)N1CC2CC1CC2c1nc(-c2ccc(Cl)c(F)c2)no1` (centres unmarked) [mCLF178] as the molecule, how does the EC50 [1] read?
A: The EC50 was > 20 µM.

Q: What about the EC50 ([2]; read-out: Cholesterol EC50) of the same molecule?
A: The EC50 was 0.083 µM.

Q: And the EC50 [3]?
A: Its EC50 is > 50 µM.

Q: What about the ER mouse [7] of the same molecule?
A: Its ER mouse is 0.3.

Q: And the ER human [8]?
A: The ER human was 0.3.

Q: And the ER rat [9]?
A: The ER rat was 0.2.

Q: And the ER dog [10]?
A: The ER dog was 0.3.

Q: And the CC50 at 72 h [11]?
A: Its CC50 at 72 h is > 20 µM.

Q: What about the CC50 at 72 h [12] of the same molecule?
A: The CC50 at 72 h was > 20 µM.

Q: And the fraction unbound at 4 h [13]?
A: Its fraction unbound at 4 h is 0.116.

Q: And the fraction unbound at 4 h [14]?
A: Its fraction unbound at 4 h is 0.111.

Q: And the IC50 at 10 min [15]?
A: Its IC50 at 10 min is > 30 µM.

Q: What about the solubility at 24 h [16] of the same molecule?
A: The solubility at 24 h was 186 µM (≈ 77.5 µg/mL).

Q: What about the IC50 [17] of the same molecule?
A: Its IC50 is 22.9 µM.

Q: For `Cc1nonc1CC(=O)N1CCC(n2nnc(-c3ccc(F)cc3)n2)CC1` [V-59, 1-(4-(5-(4-fluorophenyl)-2H-tetrazol-2-yl)piperidin-1-yl)-2-(4-methyl-1,2,5-oxadiazol-3-yl)ethan-1-one], which EC50 [1] is on record?
A: The EC50 was 0.3 µM.

Q: What about the EC50 ([2]; read-out: EC50 in cholesterol media) of the same molecule?
A: Its EC50 is 0.7 µM.

Q: And the EC50 [3]?
A: The EC50 was > 50 µM.

Q: What about the EC50 [4] of the same molecule?
A: The EC50 was > 50 µM.

Q: What about the cAMP induction [5] of the same molecule?
A: Its cAMP induction is ~ 70 fold.

Q: And the cAMP induction ([5]; CompFull strain, 24 hours)?
A: The cAMP induction was ~ 140 fold.

Q: What about the “decrease of 14CO2 release from [4-14C]-cholesterol” value [18] of the same molecule?
A: Its value is ~ 89%.

Q: And the “14CO2 release from [4-14C]-cholesterol” value ([18]; CompD204 strain lacking cyclase domain)?
A: Its value is “did not prevent”.

Q: And the “14CO2 release from [4-14C]-cholesterol” value ([18]; CompFull strain)?
A: The value was “inhibited”.

Q: What about the “14CO2 released from breakdown of [U-14C]-palmitate” value [19] of the same molecule?
A: The value was “no measurable effect”.

Q: What about the “decrease of prpD'::GFP signal” value ([20]; CompFull strain) of the same molecule?
A: Its value is ~ 90%.

Q: And the “decrease of prpD'::GFP signal” value ([20]; WT)?
A: Its value is ~ 50%.

Q: And the “prpD'::GFP signal” value ([20]; ΔRv1625c or CompD204 strains, cholesterol media or macrophage infection)?
A: Its value is “did not impact”.

Q: And the “reduction in lung CFUs” value [6, 24]?
A: The value was ~ 0.4 log10.

Q: What about the “reduction of extent of lung inflammation” value [6, 24] of the same molecule?
A: The value was ~ 50%.

Q: What about the “reduction in lung CFUs” value [21] of the same molecule?
A: Its value is ~ 0.5 log10.

Q: What about the ER mouse [7] of the same molecule?
A: Its ER mouse is 0.3.

Q: What about the ER human [8] of the same molecule?
A: The ER human was 0.3.

Q: And the “intracellular survival of MKR strain” value [22]?
A: The value was “selectively reduced intracellular survival”.

Q: And the CC50 at 72 h [11]?
A: Its CC50 at 72 h is > 20 µM.

Q: What about the CC50 at 72 h [12] of the same molecule?
A: The CC50 at 72 h was > 20 µM.

Q: What about the fraction unbound at 4 h [13] of the same molecule?
A: The fraction unbound at 4 h was 0.173.

Q: And the IC50 at 10 min [15]?
A: Its IC50 at 10 min is > 30 µM.

Q: And the solubility at 24 h [16]?
A: Its solubility at 24 h is 4.63 µM (≈ 1.72 µg/mL).

Q: And the IC50 [17]?
A: The IC50 was 8.9 µM.
